Activity calls are given as the source filed them. The rule behind the calls is not given here.
Legend:
[1] = Cytoprotection in diethyl maleate-treated human Friedreich's ataxia lymphocytes incubated for 17 hrs before diethyl maleate challenge by trypan blue dye exclusion method; format: functional
[2] = organism: Bos taurus; assay: Inhibition of NADH oxidase activity in bovine heart sub-mitochondrial particles assessed as remaining enzyme activity at 10 uM by spectrophotometry relative to untreated control
[3] = organism: Homo sapiens; assay: Inhibition of lipid peroxidation in diethyl maleate-treated human Friedreich's ataxia lymphocytes at 5 uM pre-incubated for 16 hrs before diethyl maleate challenge by FACS method relative to untreated control; format: functional
[4] = test system: CCRF-CEM; assay: Cytoprotection in diethyl maleate-treated human CCRF-CEM cells 0.1 uM incubated for 17 hrs before diethyl maleate challenge by trypan blue dye exclusion method (reference value: 18 +/- 10%); format: functional
[5] = organism: Bos taurus; assay: Inhibition of NADH oxidase activity in bovine heart sub-mitochondrial particles assessed as remaining enzyme activity at 5 uM by spectrophotometry relative to untreated control
[6] = organism: Homo sapiens; assay: Preservation of mitochondrial membrane potential in diethyl maleate-treated human Friedreich's ataxia lymphocytes at 2.5 uM pre-incubated for 16 hrs before diethyl maleate challenge by FACS method (reference value: 25%); format: functional
[7] = test system: CCRF-CEM; assay: Inhibition of diethyl maleate-induced ROS production in human CCRF-CEM cells at 0.25 to 2.5 uM incubated for 16 hrs by DCFH-DA dye staining based FACS method; format: functional, cell-based
[8] = organism: Bos taurus; assay: Inhibition of NADH oxidase activity in bovine heart sub-mitochondrial particles assessed as remaining enzyme activity at 1 uM by spectrophotometry relative to untreated control
[9] = organism: Homo sapiens; assay: Preservation of mitochondrial membrane potential in diethyl maleate-treated human Friedreich's ataxia lymphocytes at 1 uM pre-incubated for 16 hrs before diethyl maleate challenge by FACS method (reference value: 25%); format: functional
[10] = organism: Homo sapiens; assay: Inhibition of lipid peroxidation in diethyl maleate-treated human Friedreich's ataxia lymphocytes at 2.5 uM pre-incubated for 16 hrs before diethyl maleate challenge by FACS method relative to untreated control; format: functional
[11] = test system: CCRF-CEM; assay: Cytoprotection in diethyl maleate-treated human CCRF-CEM cells 0.5 uM incubated for 17 hrs before diethyl maleate challenge by trypan blue dye exclusion method (reference value: 18 +/- 10%); format: functional
[12] = test system: CCRF-CEM; assay: Cytoprotection in diethyl maleate-treated human CCRF-CEM cells 2.5 uM incubated for 17 hrs before diethyl maleate challenge by trypan blue dye exclusion method (reference value: 18 +/- 10%); format: functional
[13] = organism: Homo sapiens; assay: Preservation of mitochondrial membrane potential in diethyl maleate-treated human Friedreich's ataxia lymphocytes at 0.5 uM pre-incubated for 16 hrs before diethyl maleate challenge by FACS method (reference value: 25%); format: functional

Activity [2]	Activity [5]	Activity [8]	Compound	EC50 [1]	inhibition [3]	Activity [4]	Activity [6]	inhibition [7]	Activity [9]	inhibition [10]	Activity [11]	Activity [12]	Activity [13]
22%	26%	49%	Cc1nc(N(C)C)nc(CCCCCCCCCCO)c1O	0.38 µM	91%	76%	86%	Active	75%	83%	93%	94%	68%
			Cc1cc(N(C)C)nc(C)c1O		3.9%					3.5%			29%
15%	53%	65%	COC1=C(OC)C(=O)C(CCCCCCCCCCO)=C(C)C1=O [IDEBENONE]	0.73 µM	77%	34%	75%	Active	57%	68%	49%	88%	47%
6%	9%	27%	Cc1c(N(C)C)nc(CCCCCCCCCCO)c(O)c1C	0.56 µM	97%	42%	70%	Active	75%	87%	47%	92%	60%
25%	42%	85%	Cc1cc(N(C)C)nc(CCCCCCCCCCO)c1O	0.84 µM	82%	41%	73%	Active	54%	71%	59%	94%	45%
48%	52%	74%	Cc1cc(N)nc(CCCCCCCCCCO)c1O		74%	28%	65%	Active	50%	62%	38%	78%	42%
43%	49%	71%	Cc1cc(-n2c(C)ccc2C)nc(CCCCCCCCCCO)c1O		39%	18%	52%		44%	20%	23%	26%	35%
27%	59%	78%	Cc1cc(N2C(C)CCC2C)nc(CCCCCCCCCCO)c1O (stereo unspecified)	0.15 µM	97%	88%	83%	Dose-dependent effect	72%	90%	90%	93%	66%

Source: ChEMBL document CHEMBL2169807, “Analysis of the structural and mechanistic factors in antioxidants that preserve mitochondrial function and confer cytoprotection” (Bioorg Med Chem, 2012)
